From ChEMBL document CHEMBL4190335, “Design of KDM4 Inhibitors with Antiproliferative Effects in Cancer Models” (ACS Med Chem Lett, 2017)
Each block holds one molecule with its values, some of them ahead of it. The source made the active and inactive calls. No cut-off for these calls is given here.

What was measured:
[1] = test system: IMR-90; test: Cytotoxicity against human IMR90 cells; type: cell-based
[2] = target: Lysine-specific histone demethylase 1A (Homo sapiens) (UniProt O60341); test: Inhibition of KDM1 in human KYSE-150 cells assessed as increase in H3K4me2 level at higher concentration after 24 hrs by UHPLC-MS/MS analysis; type: cell-based
[3] = test system: KYSE-150 cell line; test: cells; conditions: Homo sapiens, KYSE-150, 168 h
Description: Antiproliferative activity against human KYSE-150 cells after 168 hrs by 5-bromo-2'-deoxyuridine thymidine incorporation assay

[4] = organism: Homo sapiens; test: Inhibition of KDM6 in human KYSE-150 cells assessed as increase in H3K27me3 level at higher concentration after 24 to 96 hrs by UHPLC-MS/MS analysis; type: cell-based
[5] = target: T1, Lysine-specific demethylase 4C (Homo sapiens, UniProt Q9H3R0); test: Inhibition of KDM4C (unknown origin) using biotinylated H3K9me3 peptide and alpha-ketoglutarate as substrate pretreated for 1 hr followed by substrate addition measured after 20 mins in presence of 0.2 mg/ml BSA by LANCE TR-FRET assay
T1 sequence (Q9H3R0 whole entry): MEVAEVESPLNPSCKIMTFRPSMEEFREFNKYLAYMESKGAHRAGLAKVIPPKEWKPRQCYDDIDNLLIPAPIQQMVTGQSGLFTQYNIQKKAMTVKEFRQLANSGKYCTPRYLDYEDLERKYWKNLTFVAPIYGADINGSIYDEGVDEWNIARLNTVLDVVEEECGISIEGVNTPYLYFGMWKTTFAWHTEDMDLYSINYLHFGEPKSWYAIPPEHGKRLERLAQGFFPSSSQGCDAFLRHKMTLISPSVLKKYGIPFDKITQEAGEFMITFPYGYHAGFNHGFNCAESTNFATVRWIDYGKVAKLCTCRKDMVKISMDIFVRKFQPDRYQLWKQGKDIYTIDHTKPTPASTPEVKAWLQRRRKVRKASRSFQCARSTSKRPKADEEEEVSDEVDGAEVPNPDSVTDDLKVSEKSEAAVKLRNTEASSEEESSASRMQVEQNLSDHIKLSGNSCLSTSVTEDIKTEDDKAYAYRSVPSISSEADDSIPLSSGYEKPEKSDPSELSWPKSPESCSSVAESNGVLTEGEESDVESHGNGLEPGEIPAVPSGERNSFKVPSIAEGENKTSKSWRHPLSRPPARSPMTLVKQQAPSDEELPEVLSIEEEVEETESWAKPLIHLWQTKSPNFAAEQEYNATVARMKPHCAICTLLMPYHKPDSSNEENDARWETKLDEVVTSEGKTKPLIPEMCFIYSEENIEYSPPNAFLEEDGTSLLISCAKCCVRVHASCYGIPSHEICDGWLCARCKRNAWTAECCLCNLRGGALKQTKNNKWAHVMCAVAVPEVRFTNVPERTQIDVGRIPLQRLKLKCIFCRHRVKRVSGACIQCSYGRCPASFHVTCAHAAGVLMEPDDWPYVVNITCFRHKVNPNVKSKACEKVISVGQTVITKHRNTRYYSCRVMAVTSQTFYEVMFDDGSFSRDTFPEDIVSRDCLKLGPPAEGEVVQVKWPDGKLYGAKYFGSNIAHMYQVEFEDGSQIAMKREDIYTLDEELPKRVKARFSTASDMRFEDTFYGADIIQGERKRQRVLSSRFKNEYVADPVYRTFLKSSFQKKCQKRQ

[6] = target: T2, Lysine-specific demethylase 4C (Homo sapiens) (UniProt Q9H3R0); test: Inhibition of full-length KDM4C (unknown origin) expressed in human KYSE-150 cells assessed as increase in H3K36me3 level after 24 hrs by HTRF assay
T2 sequence (whole entry): T1 sequence (Q9H3R0 whole entry)

[7] = target: T1, Lysine-specific demethylase 4C; test: as above
[8] = Permeability of the compound by PAMPA; type: ADME; conditions: read-out: permeability
[9] = organism: Homo sapiens; test: Inhibition of KDM5 in human KYSE-150 cells assessed as increase in H3K4me3 level at higher concentration after 24 hrs by UHPLC-MS/MS analysis; type: cell-based
[10] = Oral bioavailability in CD-1 mouse at 10 mg/kg; type: ADME, organism-based; conditions: in vivo
[11] = AUC in CD-1 mouse at 10 mg/kg, po; type: ADME, organism-based; conditions: in vivo
[12] = target: T3, Lysine-specific demethylase 2B (Homo sapiens, UniProt Q8NHM5); test: Inhibition of KDM2B (unknown origin) using biotinylated H3K36me2 peptide and alpha-ketoglutarate as substrate pretreated for 1 hr followed by substrate addition measured after 20 mins by LANCE TR-FRET assay
T3 sequence (Q8NHM5 whole entry): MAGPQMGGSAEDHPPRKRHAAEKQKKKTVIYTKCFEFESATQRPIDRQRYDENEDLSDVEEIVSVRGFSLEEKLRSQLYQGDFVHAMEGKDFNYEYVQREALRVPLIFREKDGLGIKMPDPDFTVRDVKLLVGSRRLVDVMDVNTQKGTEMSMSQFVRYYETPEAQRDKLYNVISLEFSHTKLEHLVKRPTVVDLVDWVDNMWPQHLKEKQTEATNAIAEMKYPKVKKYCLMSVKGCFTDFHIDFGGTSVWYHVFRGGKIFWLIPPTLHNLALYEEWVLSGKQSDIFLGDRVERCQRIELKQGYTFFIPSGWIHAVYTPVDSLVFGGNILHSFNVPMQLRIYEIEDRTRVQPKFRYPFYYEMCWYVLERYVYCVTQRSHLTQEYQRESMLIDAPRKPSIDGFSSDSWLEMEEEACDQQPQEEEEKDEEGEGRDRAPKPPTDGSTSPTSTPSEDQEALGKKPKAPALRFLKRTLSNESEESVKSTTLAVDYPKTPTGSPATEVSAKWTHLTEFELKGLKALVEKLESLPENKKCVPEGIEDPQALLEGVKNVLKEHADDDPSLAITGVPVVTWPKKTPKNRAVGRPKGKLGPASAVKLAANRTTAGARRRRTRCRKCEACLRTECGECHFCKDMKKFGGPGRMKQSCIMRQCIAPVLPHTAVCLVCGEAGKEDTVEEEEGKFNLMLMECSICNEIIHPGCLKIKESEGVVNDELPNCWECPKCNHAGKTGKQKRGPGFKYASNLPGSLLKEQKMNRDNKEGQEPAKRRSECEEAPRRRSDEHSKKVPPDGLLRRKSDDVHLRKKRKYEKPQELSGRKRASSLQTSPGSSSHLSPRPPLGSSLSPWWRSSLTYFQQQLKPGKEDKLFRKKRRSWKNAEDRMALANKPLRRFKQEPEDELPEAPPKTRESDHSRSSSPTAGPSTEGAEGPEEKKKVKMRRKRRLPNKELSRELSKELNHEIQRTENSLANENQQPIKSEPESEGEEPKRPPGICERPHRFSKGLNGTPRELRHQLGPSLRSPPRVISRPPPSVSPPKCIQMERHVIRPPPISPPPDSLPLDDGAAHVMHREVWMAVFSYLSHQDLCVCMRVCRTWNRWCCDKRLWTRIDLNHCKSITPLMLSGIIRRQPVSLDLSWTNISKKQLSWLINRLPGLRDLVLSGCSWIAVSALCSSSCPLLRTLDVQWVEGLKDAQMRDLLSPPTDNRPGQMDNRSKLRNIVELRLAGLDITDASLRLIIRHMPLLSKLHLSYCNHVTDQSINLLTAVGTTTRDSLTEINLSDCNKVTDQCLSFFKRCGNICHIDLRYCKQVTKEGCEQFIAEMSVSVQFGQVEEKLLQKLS

[13] = target: T4, Lysine-specific demethylase 3A (Homo sapiens, UniProt Q9Y4C1); test: Inhibition of KDM3A (unknown origin) using biotinylated H3K9me1 peptide and alpha-ketoglutarate as substrate measured after 20 mins by LANCE TR-FRET assay
T4 sequence (Q9Y4C1 whole entry): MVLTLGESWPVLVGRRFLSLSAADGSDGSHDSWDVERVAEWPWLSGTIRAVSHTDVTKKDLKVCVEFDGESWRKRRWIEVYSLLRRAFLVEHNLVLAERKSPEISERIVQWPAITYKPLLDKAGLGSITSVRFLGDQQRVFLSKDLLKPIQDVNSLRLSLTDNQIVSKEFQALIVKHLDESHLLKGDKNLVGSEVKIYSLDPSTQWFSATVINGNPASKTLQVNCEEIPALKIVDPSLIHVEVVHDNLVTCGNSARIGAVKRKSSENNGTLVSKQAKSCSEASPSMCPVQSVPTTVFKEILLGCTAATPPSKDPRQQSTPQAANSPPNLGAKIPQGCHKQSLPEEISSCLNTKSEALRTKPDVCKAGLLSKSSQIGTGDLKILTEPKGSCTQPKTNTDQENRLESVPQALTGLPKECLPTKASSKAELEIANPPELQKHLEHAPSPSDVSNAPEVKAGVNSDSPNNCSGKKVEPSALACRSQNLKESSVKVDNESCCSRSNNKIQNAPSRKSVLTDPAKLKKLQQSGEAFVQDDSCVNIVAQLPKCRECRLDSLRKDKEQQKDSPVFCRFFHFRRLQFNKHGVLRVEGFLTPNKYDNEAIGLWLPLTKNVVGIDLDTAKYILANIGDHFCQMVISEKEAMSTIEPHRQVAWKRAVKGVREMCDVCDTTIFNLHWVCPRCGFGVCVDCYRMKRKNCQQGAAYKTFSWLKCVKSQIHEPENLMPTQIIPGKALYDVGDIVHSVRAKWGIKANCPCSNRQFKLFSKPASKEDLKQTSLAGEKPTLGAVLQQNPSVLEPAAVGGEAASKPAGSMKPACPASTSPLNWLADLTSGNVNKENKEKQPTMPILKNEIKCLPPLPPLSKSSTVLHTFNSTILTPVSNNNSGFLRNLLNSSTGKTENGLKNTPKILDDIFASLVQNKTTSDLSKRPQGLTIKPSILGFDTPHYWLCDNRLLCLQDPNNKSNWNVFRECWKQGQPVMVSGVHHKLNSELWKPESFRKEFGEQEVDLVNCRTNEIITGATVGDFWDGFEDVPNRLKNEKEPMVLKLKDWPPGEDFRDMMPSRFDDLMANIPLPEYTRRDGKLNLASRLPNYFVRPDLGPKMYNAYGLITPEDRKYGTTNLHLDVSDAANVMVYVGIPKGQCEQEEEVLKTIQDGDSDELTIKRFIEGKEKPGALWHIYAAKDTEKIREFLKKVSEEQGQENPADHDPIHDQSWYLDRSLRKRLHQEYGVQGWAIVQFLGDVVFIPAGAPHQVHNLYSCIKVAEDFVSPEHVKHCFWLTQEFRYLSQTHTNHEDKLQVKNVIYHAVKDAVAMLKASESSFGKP

[14] = target: Histone lysine demethylase PHF8 (Homo sapiens, UniProt Q9UPP1); test: Inhibition of PHF8 (unknown origin) using biotinylated H3K9me1 peptide and alpha-ketoglutarate as substrate measured after 20 mins by LANCE TR-FRET assay
Chain of Histone lysine demethylase PHF8 (Q9UPP1 whole entry): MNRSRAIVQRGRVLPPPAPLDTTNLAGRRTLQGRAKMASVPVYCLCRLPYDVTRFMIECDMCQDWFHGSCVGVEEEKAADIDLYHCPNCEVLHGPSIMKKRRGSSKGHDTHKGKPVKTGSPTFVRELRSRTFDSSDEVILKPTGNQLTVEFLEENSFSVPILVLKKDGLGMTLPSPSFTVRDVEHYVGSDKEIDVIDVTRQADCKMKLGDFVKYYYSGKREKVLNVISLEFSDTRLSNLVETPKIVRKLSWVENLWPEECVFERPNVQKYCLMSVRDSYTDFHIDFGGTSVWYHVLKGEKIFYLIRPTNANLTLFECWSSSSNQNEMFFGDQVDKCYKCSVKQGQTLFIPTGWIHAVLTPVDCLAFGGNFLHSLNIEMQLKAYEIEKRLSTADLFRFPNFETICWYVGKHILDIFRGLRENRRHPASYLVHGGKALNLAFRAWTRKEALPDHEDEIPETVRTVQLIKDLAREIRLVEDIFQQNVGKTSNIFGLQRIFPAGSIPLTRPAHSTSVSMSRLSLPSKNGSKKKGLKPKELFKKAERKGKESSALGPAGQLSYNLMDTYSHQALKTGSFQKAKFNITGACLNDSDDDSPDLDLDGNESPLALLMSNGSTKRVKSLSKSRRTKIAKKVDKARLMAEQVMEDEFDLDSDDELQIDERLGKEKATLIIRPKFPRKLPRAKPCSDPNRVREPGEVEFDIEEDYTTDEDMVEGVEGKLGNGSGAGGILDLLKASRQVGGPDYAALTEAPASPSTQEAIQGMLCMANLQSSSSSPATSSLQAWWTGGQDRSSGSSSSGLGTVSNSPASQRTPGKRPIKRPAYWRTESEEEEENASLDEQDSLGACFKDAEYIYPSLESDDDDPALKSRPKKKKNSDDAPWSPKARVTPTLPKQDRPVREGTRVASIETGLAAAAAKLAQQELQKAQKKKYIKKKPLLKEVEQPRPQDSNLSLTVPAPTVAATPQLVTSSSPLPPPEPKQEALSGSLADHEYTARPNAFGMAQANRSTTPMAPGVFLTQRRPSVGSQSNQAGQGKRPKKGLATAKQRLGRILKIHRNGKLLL

[15] = Systemic clearance in CD-1 mouse at 5 mg/kg, iv; type: ADME, organism-based; conditions: in vivo
[16] = target: Lysine-specific demethylase 6B (Homo sapiens, UniProt O15054); test: Inhibition of KDM6B (unknown origin) using biotinylated H3K27me3 peptide and alpha-ketoglutarate as substrate pretreated for 1 hr followed by substrate addition measured after 20 mins by LANCE TR-FRET assay
Chain of Lysine-specific demethylase 6B (O15054 whole entry): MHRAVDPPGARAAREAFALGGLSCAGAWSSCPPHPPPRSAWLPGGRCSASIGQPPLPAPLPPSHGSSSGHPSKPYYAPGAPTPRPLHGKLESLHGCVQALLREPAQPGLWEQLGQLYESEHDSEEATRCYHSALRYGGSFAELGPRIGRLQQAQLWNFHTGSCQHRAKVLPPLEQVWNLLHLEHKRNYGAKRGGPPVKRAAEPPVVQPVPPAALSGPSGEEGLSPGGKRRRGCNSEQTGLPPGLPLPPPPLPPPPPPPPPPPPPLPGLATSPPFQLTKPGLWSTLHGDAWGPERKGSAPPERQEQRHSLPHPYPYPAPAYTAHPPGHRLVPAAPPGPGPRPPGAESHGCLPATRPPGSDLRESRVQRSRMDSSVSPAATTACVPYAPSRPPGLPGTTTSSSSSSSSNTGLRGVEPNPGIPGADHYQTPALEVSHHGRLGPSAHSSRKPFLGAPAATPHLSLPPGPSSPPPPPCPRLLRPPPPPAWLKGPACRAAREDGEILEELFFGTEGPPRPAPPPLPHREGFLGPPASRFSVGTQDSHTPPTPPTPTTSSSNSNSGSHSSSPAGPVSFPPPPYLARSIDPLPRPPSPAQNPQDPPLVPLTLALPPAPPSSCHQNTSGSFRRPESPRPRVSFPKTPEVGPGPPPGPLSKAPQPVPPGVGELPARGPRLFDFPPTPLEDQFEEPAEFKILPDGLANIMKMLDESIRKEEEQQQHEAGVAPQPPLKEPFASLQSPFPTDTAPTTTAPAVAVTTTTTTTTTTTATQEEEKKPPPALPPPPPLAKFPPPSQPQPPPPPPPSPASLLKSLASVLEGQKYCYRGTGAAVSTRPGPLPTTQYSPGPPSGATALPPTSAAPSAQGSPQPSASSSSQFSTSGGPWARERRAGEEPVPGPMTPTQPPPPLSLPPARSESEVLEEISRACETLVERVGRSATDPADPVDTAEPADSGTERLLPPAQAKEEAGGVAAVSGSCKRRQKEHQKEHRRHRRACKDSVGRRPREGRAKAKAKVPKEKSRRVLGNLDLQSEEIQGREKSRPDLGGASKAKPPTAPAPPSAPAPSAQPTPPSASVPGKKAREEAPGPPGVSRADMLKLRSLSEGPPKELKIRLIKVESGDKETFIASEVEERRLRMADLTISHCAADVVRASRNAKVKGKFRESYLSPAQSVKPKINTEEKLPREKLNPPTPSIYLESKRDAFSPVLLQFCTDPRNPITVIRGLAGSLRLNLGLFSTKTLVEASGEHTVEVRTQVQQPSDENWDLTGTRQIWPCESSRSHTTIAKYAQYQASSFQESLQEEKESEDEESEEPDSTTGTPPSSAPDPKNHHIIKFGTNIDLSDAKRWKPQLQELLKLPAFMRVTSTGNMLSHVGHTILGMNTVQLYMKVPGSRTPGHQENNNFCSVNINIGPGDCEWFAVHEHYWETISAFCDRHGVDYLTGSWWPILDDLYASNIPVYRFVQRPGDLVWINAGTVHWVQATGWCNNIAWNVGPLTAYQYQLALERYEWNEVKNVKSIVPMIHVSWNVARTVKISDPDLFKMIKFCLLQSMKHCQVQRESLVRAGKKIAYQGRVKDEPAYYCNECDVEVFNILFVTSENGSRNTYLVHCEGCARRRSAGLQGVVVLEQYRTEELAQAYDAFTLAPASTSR

[17] = target: Lysine-specific demethylase 3B (Homo sapiens, UniProt Q7LBC6); test: Inhibition of KDM3B (unknown origin) using biotinylated H3K9me1 peptide and alpha-ketoglutarate as substrate measured after 20 mins by LANCE TR-FRET assay
Chain of Lysine-specific demethylase 3B (Q7LBC6 whole entry): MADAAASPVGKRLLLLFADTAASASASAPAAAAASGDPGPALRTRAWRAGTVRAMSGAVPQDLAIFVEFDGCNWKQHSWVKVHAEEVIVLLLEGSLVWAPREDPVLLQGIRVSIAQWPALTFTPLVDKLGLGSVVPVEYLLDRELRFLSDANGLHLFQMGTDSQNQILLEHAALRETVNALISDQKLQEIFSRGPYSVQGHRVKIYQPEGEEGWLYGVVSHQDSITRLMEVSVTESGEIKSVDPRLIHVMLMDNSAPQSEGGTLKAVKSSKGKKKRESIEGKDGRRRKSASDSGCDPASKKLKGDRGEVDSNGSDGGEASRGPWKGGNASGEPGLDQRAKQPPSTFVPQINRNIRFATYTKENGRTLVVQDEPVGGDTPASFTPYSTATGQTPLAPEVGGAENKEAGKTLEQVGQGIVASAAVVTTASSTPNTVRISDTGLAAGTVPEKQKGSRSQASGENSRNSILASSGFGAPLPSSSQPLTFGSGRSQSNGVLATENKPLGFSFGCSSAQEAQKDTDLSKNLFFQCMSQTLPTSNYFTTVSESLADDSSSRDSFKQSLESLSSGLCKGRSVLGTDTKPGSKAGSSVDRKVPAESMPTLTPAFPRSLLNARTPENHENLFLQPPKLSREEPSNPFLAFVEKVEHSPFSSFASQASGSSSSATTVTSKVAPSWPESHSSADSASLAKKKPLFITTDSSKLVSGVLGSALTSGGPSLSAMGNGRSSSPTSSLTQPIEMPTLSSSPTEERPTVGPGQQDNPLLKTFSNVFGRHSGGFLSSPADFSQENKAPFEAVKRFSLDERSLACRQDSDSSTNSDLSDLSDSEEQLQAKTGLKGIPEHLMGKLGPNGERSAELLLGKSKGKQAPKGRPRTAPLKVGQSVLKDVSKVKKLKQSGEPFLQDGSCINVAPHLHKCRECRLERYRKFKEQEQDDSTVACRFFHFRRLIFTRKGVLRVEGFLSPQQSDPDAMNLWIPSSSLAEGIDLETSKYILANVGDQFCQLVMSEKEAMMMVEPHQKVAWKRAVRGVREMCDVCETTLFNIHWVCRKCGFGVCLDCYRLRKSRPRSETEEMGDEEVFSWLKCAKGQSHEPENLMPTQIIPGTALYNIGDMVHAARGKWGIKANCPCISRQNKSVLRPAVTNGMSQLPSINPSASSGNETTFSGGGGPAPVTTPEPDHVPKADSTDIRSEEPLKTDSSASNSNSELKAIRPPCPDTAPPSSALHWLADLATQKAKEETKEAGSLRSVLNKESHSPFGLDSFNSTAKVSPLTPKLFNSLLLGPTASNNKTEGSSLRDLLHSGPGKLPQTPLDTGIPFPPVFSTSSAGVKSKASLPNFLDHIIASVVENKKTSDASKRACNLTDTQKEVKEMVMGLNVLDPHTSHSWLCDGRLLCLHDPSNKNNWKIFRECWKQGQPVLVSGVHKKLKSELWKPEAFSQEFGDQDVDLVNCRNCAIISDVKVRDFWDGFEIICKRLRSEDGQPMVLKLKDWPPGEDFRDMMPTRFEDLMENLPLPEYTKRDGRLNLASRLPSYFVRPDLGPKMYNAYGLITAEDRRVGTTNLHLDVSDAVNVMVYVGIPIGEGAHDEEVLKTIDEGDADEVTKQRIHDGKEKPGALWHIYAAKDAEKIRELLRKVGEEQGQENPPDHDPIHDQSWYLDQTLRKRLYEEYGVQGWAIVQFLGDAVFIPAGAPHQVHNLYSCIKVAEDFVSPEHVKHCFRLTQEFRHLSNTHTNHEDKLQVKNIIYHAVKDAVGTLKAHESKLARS

[18] = Volume of distribution in CD-1 mouse at 5 mg/kg, iv; type: ADME, organism-based; conditions: in vivo
[19] = target: T1, Lysine-specific demethylase 4C; test: Inhibition of KDM4C (unknown origin) using biotinylated H3K9me3 peptide and alpha-ketoglutarate as substrate pretreated for 1 hr followed by substrate addition measured after 20 mins in presence of 0.02 mg/ml BSA by LANCE TR-FRET assay

inhibition [2]: Below limit of detection
EC50 [3]: 830 nM
IC50 [5]: 6 nM
inhibition [6]: Dose-dependent effect
EC50 [7]: 560 nM
Papp [8]: 1.84 ×10⁻⁶ cm/s
SMILES: COc1ccc2c(c1)CCC[C@H]2CNc1cnccc1C(=O)O
EC50 [1]: > 30000 nM
inhibition [4]: Active
inhibition [9]: Below limit of detection

EC50 [3]: 4000 nM
IC50 [5]: 8 nM
SMILES: O=C(O)c1ccncc1NC[C@@H]1CCCc2ccccc21

IC50 [5]: 48 nM
EC50 [7]: 19 nM
SMILES: O=C(O)c1ccncc1NC[C@@H]1CCCc2cc(Sc3ccccc3)ccc21

EC50 [3]: 6000 nM
IC50 [5]: 12 nM
SMILES: O=C(O)c1ccncc1NCC1CCCc2ccccc21 (centres undefined)

EC50 [3]: > 100000 nM
IC50 [5]: > 2000 nM
inhibition [6]: inactive
SMILES: O=C(O)c1ccncc1NC[C@H]1CCCc2ccccc21

bioavailability [10]: 30%
AUC [11]: 10400 ng·h/mL
IC50 [12]: > 4000 nM
IC50 [13]: > 4000 nM
IC50 [14]: > 4000 nM
clearance [15]: 6.9 mL/min/kg
IC50 [16]: > 4000 nM
IC50 [17]: > 4000 nM
EC50 [7]: 1.3 nM
Vd [18]: 0.675 L/kg
IC50 [19]: 9 nM
SMILES: CN(c1ccccc1)c1ccc2c(c1)CCC[C@H]2CNc1cnccc1C(=O)O
